Measured values from US9949479B2 (priority 2015, dated 2018).
Values joined by “and” are separate entries in the source; they are usually repeats but may differ in a detail not shown here. Equal entries are not always repeated. Where two headings read alike, the source gives them in different places.

Legend:
[1] = system: leaf blight; type: in vivo
[2] = system: rust; type: in vivo; settings: dose as in E162
[3] = system: powdery mildew; type: in vivo; settings: dose as in E154
[4] = system: leaf blight; type: in vivo; settings: dose as in E162
[5] = system: powdery mildew; type: in vivo; settings: dose as in E162
[6] = system: leaf rust fungus; type: in vivo; settings: seed treatment; dose as in E133
[7] = system: leaf blight; type: in vivo; settings: dose as in E145
[8] = system: powdery mildew; type: in vivo; settings: dose as in E145
[9] = system: Tri5 gene; type: cell-based, Fusarium asiaticum
[10] = system: rust; type: in vivo
[11] = set-up: species or system wheat; settings: in vivo
[12] = system: wheat scab; type: in vivo, Fusarium spp.
[13] = type: in vivo, wheat
[14] = type: in vivo, wheat; settings: vs control; dose as in E145
[15] = system: DON toxin synthesis capability of thalli; set-up: species or system Fusarium spp.; settings: in vivo
[16] = system: wheat scab; type: in vivo, Fusarium spp.; remark: listed apart in the source
[17] = system: wheat scab; type: in vivo, Fusarium spp.; remark: listed apart in the source
[18] = Serial 5: preparation 100 g/mu, jinggangmycin 20 g ai./mu alone
[19] = Serial 6: preparation 80 g/mu, jinggangmycin 16 g ai./mu alone
[20] = Serial 7: preparation 40 g/mu, jinggangmycin 8 g ai./mu alone
[21] = Serial 8: preparation 20 g/mu, jinggangmycin 4 g ai./mu alone
[22] = Serial 5: preparation 75 g/mu, jinggangmycin 15 g ai./mu alone
[23] = Serial 6: preparation 60 g/mu, jinggangmycin 12 g ai./mu alone
[24] = Serial 7: preparation 45 g/mu, jinggangmycin 9 g ai./mu alone
[25] = Serial 8: preparation 30 g/mu, jinggangmycin 6 g ai./mu alone
[26] = Serial 9: preparation 100 g/mu, metconazole 20 g ai./mu alone
[27] = Serial 10: preparation 80 g/mu, metconazole 16 g ai./mu alone
[28] = Serial 11: preparation 40 g/mu, metconazole 8 g ai./mu alone
[29] = Serial 12: preparation 20 g/mu, metconazole 4 g ai./mu alone
[30] = Serial 9: preparation 37.5 g/mu, metconazole 7.5 g ai./mu alone
[31] = Serial 10: preparation 30 g/mu, metconazole 6 g ai./mu alone
[32] = Serial 11: preparation 22.5 g/mu, metconazole 4.5 g ai./mu alone
[33] = Serial 12: preparation 15 g/mu, metconazole 3 g ai./mu alone

OCC1=C[C@H](NC2C[C@H](CO)[C@@H](OC3O[C@H](CO)[C@@H](O)[C@H](O)[C@H]3O)[C@H](O)[C@H]2O)[C@H](O)[C@@H](O)[C@@H]1O (stereo partly drawn) [Jinggangmycin A, jinggangmycin A]
Disease Index Prevention Effect % Leaf Blight ([1]; Serial 11: jinggangmycin 36 g ai./mu alone): 5.8%
Disease Index Prevention Effect % Leaf Blight ([1]; Serial 12: jinggangmycin 18 g ai./mu alone): 5.0%
Disease Index Prevention Effect % Leaf Blight ([1]; Serial 13: jinggangmycin 15 g ai./mu alone): 4.6%
Disease Index Prevention Effect % Leaf Blight ([1]; Serial 14: jinggangmycin 7.5 g ai./mu alone): 0%
Disease Index Prevention Effect % Leaf Blight ([1]; Serial 15: jinggangmycin 5 g ai./mu alone): 0%
Disease Index Prevention Effect % Leaf Blight ([1]; Serial 16: jinggangmycin 2.5 g ai./mu alone): 0%
Disease Index Prevention Effect % Leaf Blight ([1]; Serial 17: jinggangmycin 3 g ai./mu alone): 0%
Disease Index Prevention Effect % Leaf Blight ([1]; Serial 18: jinggangmycin 1.5 g ai./mu alone): 0%
Disease Index Prevention Effect % Leaf Blight ([1]; Serial 19: jinggangmycin 1 g ai./mu alone): 0%
Disease Index Prevention Effect % Leaf Blight ([1]; Serial 20: jinggangmycin 0.5 g ai./mu alone): 0%
Disease Index Prevention Effect % Rust [2]: 5.1% and 3.6% and 0%
Disease Index Prevention Effect % Powdery Mildew [3]: 0% and 3.4%
Disease Index Prevention Effect % Leaf Blight [4]: 8.5% and 7.9% and 0%
Disease Index Prevention Effect % Powdery Mildew [5]: 7.3% and 4.4% and 4.5% and 0%
Incidence Prevention Effect % Rust [6]: 0% and 4.5%
Disease Index Prevention Effect % Leaf Blight [7]: 8.3% and 7.8% and 0%
Disease Index Prevention Effect % Powdery Mildew [8]: 7.5% and 4.5% and 0%
Rate of Inhibition on Relative Expression Level of Tri5 Gene [9]: 66% and 84% and 87% and 90% and 59%
Disease Index Prevention Effect % Rust [10, 18]: 6.8%
Disease Index Prevention Effect % Rust [10, 19]: 6.5%
Disease Index Prevention Effect % Rust [10, 20]: 0%
Disease Index Prevention Effect % Rust [10, 21]: 0%
Thousand Kernel Weight [11]: 39.6 g and 39.0 g and 37.9 g
Disease Index Prevention Effect % Head Blight [12, 18]: 32.0%
Disease Index Prevention Effect % Head Blight [12, 19]: 25.4%
Disease Index Prevention Effect % Head Blight [12, 20]: 14.7%
Disease Index Prevention Effect % Head Blight [12, 21]: 0%
Grain Toxin Content mg of DON/kg of grain [13, 22]: 2.86 mg of DON/kg of grain
Toxin Reduction Percentage % [13, 22]: 36.7%
Grain Toxin Content mg of DON/kg of grain [13, 23]: 3.82 mg of DON/kg of grain
Toxin Reduction Percentage % [13, 23]: 15.5%
Grain Toxin Content mg of DON/kg of grain [13, 24]: 4.02 mg of DON/kg of grain
Toxin Reduction Percentage % [13, 24]: 11.1%
Grain Toxin Content mg of DON/kg of grain [13, 25]: 4.14 mg of DON/kg of grain
Toxin Reduction Percentage % [13, 25]: 8.4%

CC1(C)CCC(Cc2ccc(Cl)cc2)C1(O)Cn1cncn1 (stereo not drawn) [Metconazole]
DON Reduction Percentage (%) [14]: 88.4% and 79.9% and 71.4% and 66.6%
DON Synthesis Capability [15]: 20.16 and 19.80 and 19.96 and 19.54 and 19.20 and 19.38
Disease Index Prevention Effect % Leaf Blight ([1]; Serial 21: metconazole 20 g ai./mu alone): 80.5%
Disease Index Prevention Effect % Leaf Blight ([1]; Serial 22: metconazole 18 g ai./mu alone): 80.2%
Disease Index Prevention Effect % Leaf Blight ([1]; Serial 23: metconazole 16 g ai./mu alone): 79.6%
Disease Index Prevention Effect % Leaf Blight ([1]; Serial 24: metconazole 10 g ai./mu alone): 75.3%
Disease Index Prevention Effect % Leaf Blight ([1]; Serial 25: metconazole 9 g ai./mu alone): 75.0%
Disease Index Prevention Effect % Leaf Blight ([1]; Serial 26: metconazole 8 g ai./mu alone): 74.3%
Disease Index Prevention Effect % Leaf Blight ([1]; Serial 27: metconazole 6 g ai./mu alone): 70.2%
Disease Index Prevention Effect % Leaf Blight ([1]; Serial 28: metconazole 3 g ai./mu alone): 28.1%
Disease Index Prevention Effect % Powdery Mildew [3]: 52.6% and 65.3% and 71.8% and 82.2%
Theoretical Prevention Effect on Head Blight % ([16]; Abbott method, dose as in E162): 66.7% and 61.8% and 40.9% and 33.6%
Disease Index Prevention Effect % Head Blight ([16]; tank mixture sprayed twice, g ai. agent/mu, Jinggangmycin+Metconazole by row: r11 3+15, r12 5+10, r13 5+5, r14 10+5, r15 50+3, r16 100+3, Jinggangmycin alone r17 100, r18 50, r19 10, r20 5, r21 3, Metconazole alone r22 15, r23 10, r24 5, r25 3, r26 Polyketone 57): 66.7% and 61.8% and 50.9% and 33.6%
Incidence Prevention Effect % Rust [6]: 85.5% and 82.0% and 71.0% and 54.5%
Disease Index Prevention Effect % Powdery Mildew [8]: 78.7% and 74.3% and 70.2% and 48.6%
Disease Index Prevention Effect % Rust [10, 26]: 84.4%
Disease Index Prevention Effect % Rust [10, 27]: 77.3%
Disease Index Prevention Effect % Rust [10, 28]: 70.6%
Disease Index Prevention Effect % Rust [10, 29]: 63.8%
Thousand Kernel Weight [11]: 43.2 g and 42.6 g and 39.8 g
Theoretical Prevention Effect of Mixed Agent on Head Blight ([17]; Abbott method, dose as in E145): 65.8 and 61.3 and 48.4 and 39.6
Disease Index Prevention Effect % Head Blight ([17]; sprayed twice, g ai. agent/mu, Jinggangmycin+Metconazole by row: r16 1+15, r17 3+10, r18 5+5, r19 5+10, r20 5+15, r21 10+3, r22 10+10, r23 10+15, r24 50+3, r25 50+10, r26 50+15, r27 100+5, r28 100+10, Jinggangmycin alone r29 100, r30 50, r31 10, r32 5, r33 3, r34 1, Metconazole alone r35 15, r36 10, r37 5, r38 3, r39 Carbendazim 40): 65.8% and 61.3% and 48.4% and 39.6%
Disease Index Prevention Effect % Head Blight [12, 26]: 78.2%
Disease Index Prevention Effect % Head Blight [12, 27]: 71.2%
Disease Index Prevention Effect % Head Blight [12, 28]: 67.1%
Disease Index Prevention Effect % Head Blight [12, 29]: 52.0%
Grain Toxin Content mg of DON/kg of grain [13, 30]: 2.01 mg of DON/kg of grain
Toxin Reduction Percentage % [13, 30]: 55.5%
Grain Toxin Content mg of DON/kg of grain [13, 31]: 2.17 mg of DON/kg of grain
Toxin Reduction Percentage % [13, 31]: 52.0%
Grain Toxin Content mg of DON/kg of grain [13, 32]: 2.06 mg of DON/kg of grain
Toxin Reduction Percentage % [13, 32]: 54.4%
Grain Toxin Content mg of DON/kg of grain [13, 33]: 3.12 mg of DON/kg of grain
Toxin Reduction Percentage % [13, 33]: 31.0%
